According to patent publication US10125116B2, “Compounds and methods for treating mammalian gastrointestinal microbial infections” (Brandeis University, priority 2009, dated 2018):
pEC50: −log10 of the molar value. Where two headings read alike, the source gives them in different places.

Legend:
[1] = molecular target: T1, recombinant C. parvum IMPDH (Cryptosporidium parvum, UniProt Q8T6T2); test: C. parvum IMPDH inhibition (NADH production); assay type: biochemical
T1 construct: made in house; host or cells: bacteria (guaB strains of E. coli)
T1 sequence (Q8T6T2 1-400): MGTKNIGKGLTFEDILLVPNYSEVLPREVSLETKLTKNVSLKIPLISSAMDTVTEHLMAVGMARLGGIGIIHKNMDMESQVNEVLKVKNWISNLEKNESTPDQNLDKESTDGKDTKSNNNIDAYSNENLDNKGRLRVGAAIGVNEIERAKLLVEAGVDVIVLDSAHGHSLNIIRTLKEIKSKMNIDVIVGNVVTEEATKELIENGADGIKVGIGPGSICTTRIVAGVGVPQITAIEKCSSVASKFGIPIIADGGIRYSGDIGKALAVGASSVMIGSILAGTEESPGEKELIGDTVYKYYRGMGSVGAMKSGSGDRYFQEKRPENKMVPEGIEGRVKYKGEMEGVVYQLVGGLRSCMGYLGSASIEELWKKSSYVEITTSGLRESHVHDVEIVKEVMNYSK
Description: Recombinant C. parvum IMPDH was expressed in bacteria and purified as described previously [N. N. Umejiego et al., J Biol Chem 279, 40320-40327 (2004)].
Inhibitors at varying concentrations (25 pM-5 μM) were incubated with 10 nM C. parvum in assay buffer for 10 min at room temperature. The reaction was initiated by the addition of NAD and IMP for final concentrations of 300 μM and 150 μM, respectively. Selectivity was measured against human type II and T. foetus IMPDH at 25° C. in assay buffer. The former was assayed in the presence of 300 μM NAD 40 μM IMP and 160 nM human type II IMPDH, and the latter in the presence of 300 μM NAD 20 μM IMP and 28 nM T. foetus IMPDH. The production of NADH was monitored spectrophotometrically at 340 nm (=6.22 mM^−1 cm^−1) using a Hitachi U-2000 spectrophotometer.
IC50 values were calculated for each inhibitor according to the following equation: υi=υo/(1+[I]/IC50), using the SigmaPlot program (SPSS, Inc.).
The CpIMPDH inhibitory activity of the compounds was assessed by monitoring the production of NADH by fluorescence (FIG. 55). […]
Evaluation of Cp-IMPDH inhibitory activity for the various prepared compounds was conducted utilizing an assay measuring the conversion of IMP to XMP by monitoring the production of NADH by fluorescence emission in the presence of varying inhibitor concentrations. […]

T. gondii-CpIMPDH = T. gondii-CpIMPDH fluorescence growth assay; assay type: cell-based, Toxoplasma gondii
C. parvum [2] = test: high content imaging C. parvum growth assay; assay type: cell-based, Cryptosporidium parvum
Excerpt: FIG. 58 depicts an overview and validation of the high content imaging C. parvum growth assay. A, schematic representation of differential labelling of parasite and host. B, detail of an exemplary micrograph obtained through the screening routine. Numbers indicate object identifies after segmentation analysis. […] For panel D, the ratio of the number of FITC-VVL labelled C. parvum parasites to DAPI labelled HCT-8 host cell nuclei was used to standardize each well and percent C. parvum growth (solid line) was normalized to parasites receiving DMSO alone. […] Paromomycin in addition to reducing parasite number also reduces the average size of the parasite (dashed line). The mean parasite area was measured per well for each treatment in triplicate. The percent area was then calculated by normalizing to the mean area of parasites receiving DMSO alone.
A direct and efficient assay of Cryptosporidium proliferation was also needed. Fluorescent Vicia villosa lectin (VVL) has been used previously to score C. parvum growth by fluorescence microscopy. VVL binds with high specificity to the C. parvum parasite, labelling sporozoites, intracellular stages, the inner oocyst wall, but not the outer oocyst wall. To accommodate the increasing number of compounds entering the SAR pipeline, we adapted the FITC-VVL immunofluorescence assay to a 96-well plate format and developed an automated imaging and analysis pipeline. […] Plates are fixed, permeabilized and stained with FITC-VVL and DAPI to numerate parasites and host cells, respectively. Using a spinning disc microscope, we imaged a […] of each well, providing a robust sample typically consisting of ˜6000 host cells and ˜2000 parasite stages. The instrument is programmed to automatically move from well to well, focus and acquire […] deep image stacks for the entire plate. A series of automated image compression, manipulation, and object-finding algorithms was optimized for the recognition of host cells and parasites using the DAPI and FITC channels. […]

HCT-8 cells = test: fluorescent HCT-8 host cell growth assay; assay type: cell-based, human
Excerpt: The differentiation of selective antiparasitic effects from those that are a secondary consequence of a host cell effect is a critical issue in drug discovery for intracellular parasites. Cytotoxicity assays commonly reflect plasma membrane integrity, and are a crude measure of host cell effects—it is conceivable that more subtle perturbations of host cell metabolism can have an adverse effect on parasite proliferation. Therefore we sought to develop a simple and inexpensive assay of host cell growth. The human ileocecal adenocarcinoma epithelial cell line, HCT-8, which is commonly used to maintain C. parvum infection in tissue culture, was engineered to constitutively express a green fluorescent protein (GFP). Growth of this cell line was monitored daily using a fluorescent plate reader. […] These experiments validate the use of the fluorescent HCT-8 cell growth assay.
HCT-8 cells were transfected with the pmaxGFP plasmid (Amaxa) using Lipofectamine (Invitrogen) following the manufactures instruction. Fluorescent lines were then selected and cloned using FACS. Confluent monolayers of pmaxGFP expressing cells were harvested from T75 flasks and passed through a 40 μm cell strainer. Cells were then seeded at 4000 cells per well in a volume of 200 μL into black, optical quality, thin bottom, 96-well plates (DB Falcon). All test compounds were diluted in DMSO to prepare a 200× working stock for each dilution. Appropriate wells were spiked with 1 μl such that the final concentration of DMSO was 0.5%. The fluorescence was read daily with a SpectraMax M22/M2e (Molecular Devices) plate reader (Ex 485, Em 530) for 6-7 days. The percent inhibition was calculated on a day within the exponential phase of growth.

C. parvum [3] = settings: read-out: reported EC50 C. parvum growth (previous studies); cited from earlier work

Row | SMILES | CpIMPDH inhibition, result in words [1] | selective block of T. gondii-CpIMPDH growth, in words (T. gondii-CpIMPDH) | mean parasite area, in words (C. parvum [2]) | pEC50 (C. parvum [2]; Cryptosporidium parvum, in HCT-8 host cells) | reduction in parasite number (C. parvum [2]; very high concentrations) | host cell (HCT-8) growth effect, in words (HCT-8 cells) | pEC50 (C. parvum [3])
1 | O=C(Nc1ccc(Cl)cc1)C(Oc1cccc2ccccc12)c1ccccc1 (stereo not shown) [A66] | do not inhibit CpIMPDH in vitro | none of these compounds selectively blocked the growth | – | – | – | – | –
2 | NC[C@@H]1O[C@H](O[C@H]2[C@@H](O)[C@H](O[C@@H]3[C@@H](O)[C@H](N)C[C@H](N)[C@H]3O[C@H]3O[C@H](CO)[C@@H](O)[C@H](O)[C@H]3N)O[C@@H]2CO)[C@H](N)[C@@H](O)[C@@H]1O [paromomycin] | – | – | significantly reduce the mean parasite area in a dose responsive manner | 4.01 | ~70% | negligible effects on the growth of these cells | 3.89 to 4.19
